Data: patent EP0174371B1, “TRIPHENYLMETHANE DERIVATIVES AND METHOD FOR DETERMINING OXIDATIVE SUBSTANCES USING THEM AS COLOR-FORMING COMPONENT” (WAKO PURE CHEMICAL INDUSTRIES, LTD., priority 1984, dated 1985)
Values after ≈ are worked out from the molar mass of the structure shown.

Tests used:
[1] = known triphenyl methane type leuco coloring matters, statement in words; cited from earlier work
physchem = conditions: pH 7.2, aqueous buffer
[2] = Solubility in water around the neutral pH range; conditions: for solubility in water: pH 7.2 (around the neutral range); for solubility in water relative to BSPM: pH 7.2, multiple of the solubility of BSPM
[3] = tested on: H202-POD (peroxidase) system; assay: Oxidation coloring in the H2O2-peroxidase system; conditions: statement in words
Excerpt: The triphenyl methane derivatives according to the present invention in which two groups ―O(CH2)nSO3M (M and n are the same meanings as given above), are present, are unexpectedly different from the triphenyl methane derivative in which two sulfonic acid groups are directly bonded to the benzene nucleus, since they are excellent in oxidation coloring in the H202-POD system, and can be satisfactorily used for the purpose aimed at by the present invention.

SMILES: CN(C)c1ccc(C(c2ccc(N(C)C)cc2)c2ccc(N(C)C)cc2)cc1 [leucocrystal violet]
- solubility in water in the neutral pH-range [1]: difficult to dissolve into water in the neutral pH-range

SMILES: CCN(CC)c1ccc(C(c2ccc(N(CC)CC)cc2)c2ccccc2S(=O)(=O)O)cc1 [BSPM, bis(4-diethylaminophenyl)-2-sulfophenyl methane]
- solubility (physchem): 500 µM (≈ 233 µg/mL)

SMILES: CN(C)c1ccc(C(c2ccccc2)c2ccc(N(C)C)cc2)cc1 [leuco malachite green]
- solubility in water in the neutral pH-range [1]: difficult to dissolve into water in the neutral pH-range

SMILES: CCN(CC)c1ccc(C(c2ccc(OCCCS(=O)(=O)O)cc2)c2ccc(N(CC)CC)cc2)cc1 [BSproPM, bis(4-N,N-diethylaminophenyl)-4-sodium sulfopropoxyphenyl methane]
- solubility in water [2]: 5 mM
- solubility in water relative to BSPM [2]: 10 times

SMILES: CCN(CC)c1ccc(C(c2ccc(N(CC)CC)cc2)c2ccc(S(=O)(=O)O)cc2S(=O)(=O)O)cc1 [bis(4-diethylaminopheny)-2,4-disulfophenyl methane]
- oxidation coloring in the H202-POD system [3]: no coloring takes place

SMILES: CCN(CC)c1ccc(C(c2ccc(N(CC)CC)cc2)c2ccc(OCCCS(=O)(=O)O)c(OCCCS(=O)(=O)O)c2)cc1 [BSdiproPM, bis(4-N,N-diethylaminophenyl)-3,4-disodium sulfopropoxyphenyl methane]
- solubility in water [2]: ≥ 15 mM
- solubility in water relative to BSPM [2]: not less than 30 times
